pKd: −log10 of the molar value. Like-named read-outs stand apart in the source and are kept apart here.

Assay [1] has as its system mice with CFA-induced inflammation. It counts as in vivo, mouse. As to conditions: ICR mice, CFA in right paw, 200 μCi iv, n=3.
For assay [2], the system named is VLA-4 positive B16F10 melanoma cells. As to conditions: previously reported; cited from earlier work.

As a reminder, the pKd is the Kd on a negative log10 scale, so that one unit is a factor of ten. For the substance CB-TE1A1P-PEG4-LLP2A [^64Cu-LLP2A], the Inflamed paw/muscle ratio is listed as 7.5 ± 3.7 in assay [1] (PET/CT 2 h post-injection) and 16.7 ± 1 in assay [1] (PET/CT 6 h post-injection). In assay [2], the pKd is 9.55.

Values taken from paper PMC5520654 (Journal of immunology (Baltimore, Md. : 1950), 2017).
